US4891358A, “ANE derivatives with novel bridging” (Bio-Mega Inc., priority 1987, dated 1990)
Numbered stars: 1 amine (or outer) side, 2 acyl side, 3 side chain; on linkers, the order of the positions; unused ones are H or OH. Bridge positions count the residues as written; N and C are the ends. Square brackets hold non-standard residues; d marks the D form. Peptide text beside a SMILES is read from it. Pen = CC(C)(S)[C@H](N)C(=O)O; X1 = O=C(CCC[*:2])[*:1]

System: conscious normotensive rat
Assay: Diuretic assay in the conscious normotensive rat
Assay type: in vivo
Details: for URINE VOLUME: 0.5 μg/kg/min infusion via femoral vein, ratio of treated over control, volume in 10 minute sample (average of three consecutive samples); for ELECTROLYTE EXCRETION K^+ / ELECTROLYTE EXCRETION Na^+: 0.5 μg/kg/min infusion, treated minus controls, average of three samples
Excerpt: More explicitly, normotensive male rats (300-325 g) were anesthetized with halothane. Following an application of lidocaine 2% solution, the femoral artery was cannulated for measurements of blood pressure and heart rate, and the femoral vein was cannulated for the administration of the test compounds. The bladder was also cannulated to measure urine flow. After surgery was completed, the animals were placed in restraining cages and allowed to recover from anesthesia for a period of one hour. A Ringer's solution infusion was started at a rate of 1.2 ml per hour. Three control urine samples were collected at 10 minute intervals. The test compound was then infused at a rate varying from 0.5 to 3 μg/kg/min over 30 minutes. Three test samples of urine were collected at 10 minute intervals during the compound infusion. After the test compound had been infused for 30 minutes and 3 more urine samples were collected. The volume of each urine sample was determined and the electrolyte concentration was measured using a biomedical electrolyte analyser. The animals served as their own controls. The systolic and diastolic blood pressures and the heart rate were determined during each urine collection period.

CC[C@H](C)[C@@H]1NC(=O)[C@H](CCCNC(=N)N)NC(=O)[C@H](CC(=O)O)NC(=O)[C@H]([C@@H](C)CC)NC(=O)[C@H](CCCNC(=N)N)NC(=O)CNC(=O)CNC(=O)[C@H](Cc2ccccc2)NC(=O)CCCSC(C)(C)[C@@H](C(=O)N[C@@H](CC(N)=O)C(=O)N[C@@H](CO)C(=O)N[C@@H](Cc2ccccc2)C(=O)N[C@@H](CCCNC(=N)N)C(=O)N[C@@H](Cc2ccc(O)cc2)C(=O)O)NC(=O)CNC(=O)[C@H](CC(C)C)NC(=O)CNC(=O)[C@H](CO)NC(=O)[C@H](CCC(N)=O)NC(=O)[C@H](C)NC(=O)CNC1=O [rat[(CH2 CH2 CH2 CO)^105, Pen^121]-ANF(105-126)] (FGGRIDRIGAQSGLG[Pen]NSFRY-OH; linker N-16 via X1)
URINE VOLUME: 3.0
ELECTROLYTE EXCRETION K^+: 24.8
ELECTROLYTE EXCRETION Na^+: 17.9

rat [(CH2 -CH2 CH2 CO)^105]ANF-(105-126) [rat[(CH2 CH2 CH2 CO)^105]-ANF(105-126)]
URINE VOLUME: 2.8
ELECTROLYTE EXCRETION K^+: 10.2
ELECTROLYTE EXCRETION Na^+: 34.0
